Data from patent US20250171426A1, “PYRIMIDINEDIONE-BASED COMPOUNDS AS AXL, C-MET, AND MER INHIBITORS AND METHODS OF USE THEREOF” (CMG Pharmaceutical Co., Ltd., priority 2022, published 2025).

Key:
Format in all cases: biochemical
Conditions in all cases: 10 μM ATP, 60 min, ADP-GLO luminescence
c-MET = c-MET (Homo sapiens, UniProt P08581); assay: Enzymatic assay (ADP-Glo kinase reaction), c-MET
Procedure, shortened: (§1)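 For both AXL and c-MET, reactions in tyrosine kinase buffer used 0.2 μg/μL poly(Glu4,Tyr1) and 10 μM ATP with serially diluted inhibitor, 60 min at room temperature. ADP formed was read by ADP-Glo luminescence after 40 min reagent incubation.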

AXL = molecular target: T1, AXL (Homo sapiens, UniProt P30530); assay: Enzymatic assay (ADP-Glo kinase reaction), AXL
T1 sequence (P30530 26-894): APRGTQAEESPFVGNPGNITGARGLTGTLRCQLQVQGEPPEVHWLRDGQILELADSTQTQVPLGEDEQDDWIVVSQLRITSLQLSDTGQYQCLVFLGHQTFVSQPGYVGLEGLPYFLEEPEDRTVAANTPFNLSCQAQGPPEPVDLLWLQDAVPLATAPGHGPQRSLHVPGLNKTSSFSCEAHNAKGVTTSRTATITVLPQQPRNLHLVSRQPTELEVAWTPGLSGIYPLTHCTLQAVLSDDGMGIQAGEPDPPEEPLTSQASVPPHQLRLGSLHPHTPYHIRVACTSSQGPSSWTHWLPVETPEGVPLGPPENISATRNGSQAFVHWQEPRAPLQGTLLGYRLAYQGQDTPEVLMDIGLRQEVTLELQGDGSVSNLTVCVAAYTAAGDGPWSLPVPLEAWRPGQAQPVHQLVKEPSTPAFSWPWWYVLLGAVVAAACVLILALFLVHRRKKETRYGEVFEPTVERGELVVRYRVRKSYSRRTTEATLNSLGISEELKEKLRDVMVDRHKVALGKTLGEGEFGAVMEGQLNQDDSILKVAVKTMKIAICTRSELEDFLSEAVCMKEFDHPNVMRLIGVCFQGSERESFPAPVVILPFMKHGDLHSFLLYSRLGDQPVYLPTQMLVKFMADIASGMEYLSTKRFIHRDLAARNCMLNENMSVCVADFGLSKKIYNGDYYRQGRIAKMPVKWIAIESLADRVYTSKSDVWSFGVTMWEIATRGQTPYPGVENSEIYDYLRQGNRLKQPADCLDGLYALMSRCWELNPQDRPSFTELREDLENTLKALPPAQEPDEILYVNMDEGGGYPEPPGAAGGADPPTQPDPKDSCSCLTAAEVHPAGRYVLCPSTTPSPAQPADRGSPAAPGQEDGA
Procedure, shortened: as §1

MER = molecular target: T2, MER (Homo sapiens, UniProt Q12866); assay: Enzymatic assay (ADP-Glo kinase reaction), MER
T2 sequence (Q12866 21-999): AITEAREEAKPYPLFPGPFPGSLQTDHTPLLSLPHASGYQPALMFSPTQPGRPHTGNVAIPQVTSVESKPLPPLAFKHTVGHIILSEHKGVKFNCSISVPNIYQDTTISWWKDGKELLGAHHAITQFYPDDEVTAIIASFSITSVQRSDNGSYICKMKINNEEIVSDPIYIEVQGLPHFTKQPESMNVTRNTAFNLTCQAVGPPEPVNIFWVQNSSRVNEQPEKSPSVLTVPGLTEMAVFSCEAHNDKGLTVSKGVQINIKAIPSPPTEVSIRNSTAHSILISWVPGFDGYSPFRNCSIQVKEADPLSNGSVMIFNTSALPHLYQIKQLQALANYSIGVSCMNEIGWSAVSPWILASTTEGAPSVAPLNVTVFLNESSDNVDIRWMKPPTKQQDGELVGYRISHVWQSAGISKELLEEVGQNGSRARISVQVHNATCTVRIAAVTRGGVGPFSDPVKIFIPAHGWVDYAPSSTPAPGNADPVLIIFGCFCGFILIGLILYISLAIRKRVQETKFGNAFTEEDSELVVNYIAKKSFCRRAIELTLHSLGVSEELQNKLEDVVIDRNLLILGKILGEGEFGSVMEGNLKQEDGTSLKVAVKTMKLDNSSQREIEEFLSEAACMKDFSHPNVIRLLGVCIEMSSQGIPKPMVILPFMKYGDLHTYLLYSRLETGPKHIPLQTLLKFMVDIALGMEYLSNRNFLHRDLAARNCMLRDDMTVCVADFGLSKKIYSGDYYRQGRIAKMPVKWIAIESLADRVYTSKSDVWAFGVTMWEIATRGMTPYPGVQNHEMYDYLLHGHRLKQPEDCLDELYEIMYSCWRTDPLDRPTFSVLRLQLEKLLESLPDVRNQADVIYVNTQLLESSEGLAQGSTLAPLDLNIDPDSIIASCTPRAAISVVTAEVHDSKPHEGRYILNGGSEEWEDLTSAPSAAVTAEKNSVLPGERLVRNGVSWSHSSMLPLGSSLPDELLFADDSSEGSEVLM
Procedure, shortened: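 ADP-Glo luminescence assay of MER in tyrosine kinase buffer with 0.2 μg/μL poly(Glu4,Tyr1) substrate and 10 μM ATP. Serially diluted inhibitor reacted 60 min at room temperature. IC50 taken from luminescence after ADP-Glo and detection steps.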

c-MET, sequence (P08581 25-1390): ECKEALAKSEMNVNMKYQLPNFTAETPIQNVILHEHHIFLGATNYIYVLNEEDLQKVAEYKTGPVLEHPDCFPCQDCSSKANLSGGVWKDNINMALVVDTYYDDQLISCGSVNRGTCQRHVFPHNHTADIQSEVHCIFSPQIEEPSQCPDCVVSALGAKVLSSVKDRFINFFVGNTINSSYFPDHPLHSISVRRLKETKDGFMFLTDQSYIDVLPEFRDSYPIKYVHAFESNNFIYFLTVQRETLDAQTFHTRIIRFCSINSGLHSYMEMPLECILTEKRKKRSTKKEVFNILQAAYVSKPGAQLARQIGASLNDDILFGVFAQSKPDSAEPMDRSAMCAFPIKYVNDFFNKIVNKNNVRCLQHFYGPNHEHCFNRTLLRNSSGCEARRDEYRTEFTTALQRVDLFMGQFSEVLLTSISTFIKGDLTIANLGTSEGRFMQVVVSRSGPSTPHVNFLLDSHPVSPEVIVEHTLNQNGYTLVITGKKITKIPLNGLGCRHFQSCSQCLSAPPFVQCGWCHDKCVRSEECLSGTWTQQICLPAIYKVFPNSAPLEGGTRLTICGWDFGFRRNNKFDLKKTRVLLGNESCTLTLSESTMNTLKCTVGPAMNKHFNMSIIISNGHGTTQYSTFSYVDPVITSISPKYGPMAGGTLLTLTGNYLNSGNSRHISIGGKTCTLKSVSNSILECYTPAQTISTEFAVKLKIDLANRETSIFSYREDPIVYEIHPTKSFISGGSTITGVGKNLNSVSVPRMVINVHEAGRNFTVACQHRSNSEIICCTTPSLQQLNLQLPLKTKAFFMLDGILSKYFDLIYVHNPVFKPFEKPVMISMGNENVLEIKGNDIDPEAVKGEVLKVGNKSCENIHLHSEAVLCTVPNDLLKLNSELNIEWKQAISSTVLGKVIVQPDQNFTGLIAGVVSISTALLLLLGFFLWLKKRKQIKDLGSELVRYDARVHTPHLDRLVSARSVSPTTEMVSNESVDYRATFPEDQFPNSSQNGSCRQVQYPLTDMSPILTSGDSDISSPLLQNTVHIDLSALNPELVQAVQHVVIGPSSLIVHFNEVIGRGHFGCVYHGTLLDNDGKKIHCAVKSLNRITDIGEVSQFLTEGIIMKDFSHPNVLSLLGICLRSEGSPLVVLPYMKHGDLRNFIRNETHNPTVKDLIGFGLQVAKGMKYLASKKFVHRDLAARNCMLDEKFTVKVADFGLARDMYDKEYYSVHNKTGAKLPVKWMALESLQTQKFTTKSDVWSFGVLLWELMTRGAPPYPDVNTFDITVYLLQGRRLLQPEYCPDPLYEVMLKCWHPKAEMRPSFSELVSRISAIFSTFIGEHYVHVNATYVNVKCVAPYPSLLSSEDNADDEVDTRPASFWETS

Compound	IC50 (c-MET) [nM]	IC50 (AXL) [nM]	IC50 (MER) [nM]
CC(C)(C#Cc1c(Oc2ccc(NC(=O)c3c[nH]c(=O)n(-c4ccc(F)cc4)c3=O)cc2F)ccnc1N)N1CCNCC1 [Example 52, N-(4-(2-amino-3-(3-methyl-3-(piperazin-1-yl)but-1-ynyl)pyridin-4-yloxy)-3-fluorophenyl)-3-(4-fluorophenyl)-2,4-dioxo-1,2,3,4-tetrahydropyrimidine-5-carboxamide]	< 1000	< 100	< 100
Cc1noc(C)c1-c1c(Oc2ccc(NC(=O)c3cn(C(C)C)c(=O)n(-c4ccc(F)cc4)c3=O)cc2F)ccnc1N [Example 11]	< 10000	< 100	< 10
CC(C)n1cc(C(=O)Nc2ccc(Oc3ccnc(N)c3C#CC(C)(C)N3CCNCC3)c(F)c2)c(=O)n(-c2ccc(F)cc2)c1=O [Example 19, N-(4-(2-amino-3-(3-methyl-3-(piperazin-1-yl)but-1-ynyl)pyridin-4-yloxy)-3-fluorophenyl)-3-(4-fluorophenyl)-1-isopropyl-2,4-dioxo-1,2,3,4-tetrahydropyridmidine-5-carboxamide]	< 1000	< 10	< 10
CCCn1cc(-c2c(Oc3ccc(NC(=O)c4cn(C(C)C)c(=O)n(-c5ccc(F)cc5)c4=O)cc3F)ccnc2N)cn1 [Example 12, N-(4-(2-amino-3-(1-propyl-1H-pyrazol-4-yl)pyridine-4-yloxy)-3-fluorophenyl)-3-(4-fluorophenyl)-1-isopropyl-2,4-dioxo-1,2,3,4-tetrahydropyrimidine-5-carboxamide]	< 10000	< 1000	< 1000

More lines, now with the values ahead:

IC50 (c-MET) [nM]	IC50 (AXL) [nM]	IC50 (MER) [nM]	Compound
< 100	< 10	< 10	C=CCn1cc(C(=O)Nc2ccc(Oc3ccnc(N)c3C#CCN3CCOCC3)c(F)c2)c(=O)n(CC=C)c1=O [Example 67, 1,3-diallyl-N-(4-(2-amino-3-(3-morpholinoprop-1-ynyl)pyridin-4-yloxy)-3-fluorophenyl)-2,4-dioxo-1,2,3,4-tetrahydropyrimidine-5-carboxamide]
< 100	< 100	< 10	C=CCn1cc(C(=O)Nc2ccc(Oc3ccnc(N)c3C#CCC3CCNCC3)c(F)c2)c(=O)n(CC=C)c1=O [Example 71, 1,3-dialyl-N-(4-(2-amino-3-(3-(piperidin-4-yl)prop-1-ynyl)pyridin-4-yloxy)-3-fluorophenyl)-2,4-dioxo-1,2,3,4-tetrahydropyrimidine-5-carboxamide]
< 10	< 10	< 10	COCCN1CCN(CC#Cc2c(Oc3ccc(NC(=O)c4cn(C(C)C)c(=O)n(-c5ccc(F)cc5)c4=O)cc3F)ccnc2N)CC1 [Example 18, N-(4-(2-amino-3-(3-(4-(2-methoxyethyl)piperazin-1-yl)prop-1-ylny)pyridin-4-yloxy)-3-fluorophenyl)-3-(4-fluorophenyl)-1-isopropyl-2,4-dioxo-1,2,3,4-tetrahydropyrimidine-5-carboxamide]
< 100	< 10	< 10	CC(C)n1cc(C(=O)Nc2ccc(Oc3ccnc(N)c3C#CC3CCNCC3)c(F)c2)c(=O)n(-c2ccc(F)cc2)c1=O [Example 15, N-(4-(2-amino-3-(piperidin-4-ylethynyl)pyridin-4-yloxy)-3-fluorophenyl)-3-(4-fluorophenyl)-1-isopropyl-2,4-dioxo-1,2,3,4-tetrahydropyrimidine-5-carboxamide]
< 10	< 10	< 10	COCCN1CCC(CC#Cc2c(Oc3ccc(NC(=O)c4cn(C(C)C)c(=O)n(-c5ccc(F)cc5)c4=O)cc3F)ccnc2N)CC1 [Example 28, N-(4-(2-amino-3-(3-(1-(2-methoxyethyl)piperidin-4-yl)prop-1-ynyl)pyridin-4-yloxy)-3-fluorophenyl)-3-(4-fluorophenyl)-1-isopropyl-2,4-dioxo-1,2,3,4-tetrahydropyrimidine-5-carboxamide]
